Measured values reported in ChEMBL document CHEMBL6182926, “Design, Synthesis, and Biological Activity Evaluation of Deuterated Diphenyl Azole Alcohol-Based CYP51 Inhibitors” (J Med Chem, 2025).
Values after ≈ are worked out from the molar mass of the structure shown. Active and inactive are the calls of the source. The rule behind the calls is not given here.

Assays:
Candida albicans [1] = assay: Antifungal activity against Candida albicans SC 5314 assessed as inhibition of visible growth; assay type: functional
Candida albicans [2] = assay: Antifungal activity against Candida albicans CPCC 400616 assessed as inhibition of visible growth; assay type: functional
Candida tropicalis = assay: Antifungal activity against Candida tropicalis CGMCC 2.3739 assessed as inhibition of visible growth; assay type: functional
Candida parapsilosis = assay: Antifungal activity against Candida parapsilosis GIM 2.190 assessed as inhibition of visible growth; assay type: functional; conditions: Lodderomyces parapsilosis
Nakaseomyces glabratus = assay: Antifungal activity against Clinical isolate Candida glabrata assessed as inhibition of visible growth; assay type: functional
Pichia kudriavzevii = assay: Antifungal activity against Candida krusei AS 2.1045 assessed as inhibition of visible growth; assay type: functional
Cryptococcus neoformans = assay: Antifungal activity against Cryptococcus neoformans CGMCC 2.3161 assessed as inhibition of visible growth; assay type: functional
Aspergillus fumigatus = assay: Antifungal activity against Aspergillus fumigatus CGMCC 3.7795 assessed as inhibition of visible growth; assay type: functional
[3] = Metabolic stability in human liver microsomes assessed as half life by LC-MS/MS analysis; assay type: ADME, Microsome; conditions: liver microsomes
[4] = Metabolic stability in human liver microsomes assessed as compound remaining measured up to 60 mins by LC-MS/MS analysis; assay type: ADME, Microsome; conditions: liver microsomes, read-out: Activity
[5] = Cytotoxicity against human HUVEC cells measured after 72 hrs by MTT assay; assay type: toxicity, cell-based
Candida albicans [6] = assay: Antifungal activity against Candida albicans CPCC 400616 assessed as suppression of hyphal formation (inhibition of yeast to hypha transition) at 2 microg/ml measured after 4 hrs by inverted microscopy; assay type: functional, organism-based; conditions: dose 2.0 µg/ml, tested as the 2H-labelled form
Cell membrane [7] = assay: Induction of loss of cell membrane integrity in Candida albicans SC5314 assessed as irregular cell morphology at 16 microg/ml measured after 48 hrs incubation by transmission electron microscopy; assay type: subcellular; conditions: dose 16.0 µg/ml, tested as the 2H-labelled form
Cell membrane [8] = assay: Induction of loss of cell membrane integrity in Candida albicans SC5314 assessed as leakage of intracellular components into the extracellular environment at 16 microg/ml measured after 48 hrs incubation by transmission electron microscopy; assay type: subcellular; conditions: dose 16.0 µg/ml
Mus musculus = assay: In vivo antifungal activity against Candida albicans SC5314 infected in ICR mouse model assessed as mouse survival at 1 mg/kg, oral gavage measured for 21 days post infection; assay type: functional, organism-based; conditions: time 21.0 day, tested as the 2H-labelled form
Candida albicans [9] = assay: In vivo antifungal activity against Candida albicans SC5314 infected in cyclophosphamide-immunosuppressed ICR mouse model assessed as reduction in fungal burden in kidney at 1 mg/kg, oral gavage for 5 days post infection; assay type: functional, organism-based; conditions: time 5.0 day, tested as the 2H-labelled form
Candida albicans [10] = assay: In vivo antifungal activity against Candida albicans SC5314 infected in cyclophosphamide-immunosuppressed ICR mouse model assessed as reduction in fungal burden in kidney at 5 mg/kg, oral gavage for 5 days post infection; assay type: functional, organism-based; conditions: time 5.0 day, tested as the 2H-labelled form
Candida albicans [11] = assay: In vivo anti-resistant activity against fluconazole-resistant Candida albicans strain 17# infected in cyclophosphamide-immunosuppressed ICR mouse model assessed as reduction in fungal burden in kidney at 5 mg/kg, oral gavage for 5 days post infection; assay type: functional, organism-based; conditions: time 5.0 day, tested as the 2H-labelled form
Candida albicans [12] = assay: In vivo anti-resistant activity against fluconazole-resistant Candida albicans strain 17# infected in cyclophosphamide-immunosuppressed ICR mouse model assessed as reduction in fungal burden in kidney at 10 mg/kg, oral gavage for 5 days post infection; assay type: functional, organism-based; conditions: time 5.0 day, tested as the 2H-labelled form

Row | Compound | MIC80 (Candida albicans [1]) | MIC80 (Candida albicans [2]) | MIC80 (Candida tropicalis) | MIC80 (Candida parapsilosis) | MIC80 (Nakaseomyces glabratus) | MIC80 (Pichia kudriavzevii) | MIC80 (Cryptococcus neoformans) | MIC80 (Aspergillus fumigatus) | half-life [3] | remaining at 1 h [4] | IC50 at 72 h [5] | inhibition (Candida albicans [6]) | Activity (Cell membrane [7]) | Activity (Cell membrane [8]) | Activity (Mus musculus) | Activity (Candida albicans [9]) | Activity (Candida albicans [10]) | Activity (Candida albicans [11]) | Activity (Candida albicans [12])
1 | CN(Cc1ccc(N2CCN(Cc3ccc(F)cc3Br)CC2)cc1)CC(O)(Cn1cncn1)c1ccc(F)cc1F (configuration not stated) | 6 ng/mL (≈ 0.00953 µM) | 6 ng/mL (≈ 0.00953 µM) | 6 ng/mL (≈ 0.00953 µM) | 6 ng/mL (≈ 0.00953 µM) | 0.05 µg/mL (≈ 0.0794 µM) | 0.05 µg/mL (≈ 0.0794 µM) | 0.012 µg/mL (≈ 0.0191 µM) | 0.05 µg/mL (≈ 0.0794 µM) | 2.89 min | 0.936% | 21 µM | – | – | – | – | – | – | – | –
2 | [2H]C([2H])([2H])N(Cc1ccc(-c2ccc(Cl)cc2)cc1)[C@H](C)[C@](O)(Cn1cncn1)c1ccc(F)cc1F | 6 ng/mL (≈ 0.0123 µM) | 6 ng/mL (≈ 0.0123 µM) | 6 ng/mL (≈ 0.0123 µM) | 6 ng/mL (≈ 0.0123 µM) | 0.012 µg/mL (≈ 0.0247 µM) | 0.012 µg/mL (≈ 0.0247 µM) | 0.006 µg/mL (≈ 0.0123 µM) | 0.025 µg/mL (≈ 0.0514 µM) | – | – | – | – | – | – | – | – | – | – | –
3 | [2H]C([2H])([2H])N(Cc1ccc(-c2ccc(OC(F)(F)F)cc2)nc1)[C@H](C)[C@](O)(Cn1cncn1)c1ccc(F)cc1F | 6 ng/mL (≈ 0.0112 µM) | 12 ng/mL (≈ 0.0224 µM) | 12 ng/mL (≈ 0.0224 µM) | 6 ng/mL (≈ 0.0112 µM) | 0.012 µg/mL (≈ 0.0224 µM) | 0.012 µg/mL (≈ 0.0224 µM) | 0.012 µg/mL (≈ 0.0224 µM) | 0.025 µg/mL (≈ 0.0466 µM) | – | – | – | – | – | – | – | – | – | – | –
4 | C[C@@H](N(C)Cc1ccc(-c2ccc(OC(F)(F)F)cc2)cc1)[C@](O)(Cn1cncn1)c1ccc(F)cc1F | – | – | – | – | – | – | – | – | – | – | – | Active | Active | Active | inactive | Active; Low Dose Antifungal Activity Weaker Than Fluconazole (Positive Control) | Active | Active | Active; Compound Showed Far Superior Effect Than Fluconazole
5 | CC(C)c1ccc(-c2ccc(CN(C)CC(O)(Cn3cncn3)c3ccc(F)cc3F)nc2)cc1 (configuration not stated) | 12 ng/mL (≈ 0.0251 µM) | 12 ng/mL (≈ 0.0251 µM) | 12 ng/mL (≈ 0.0251 µM) | 12 ng/mL (≈ 0.0251 µM) | 0.2 µg/mL (≈ 0.419 µM) | 0.1 µg/mL (≈ 0.209 µM) | 0.025 µg/mL (≈ 0.0523 µM) | – | – | – | – | – | – | – | – | – | – | – | –
6 | [2H]C([2H])([2H])N(Cc1ccc(-c2ccc(Cl)cc2F)cc1)[C@H](C)[C@](O)(Cn1cncn1)c1ccc(F)cc1F | 6 ng/mL (≈ 0.0119 µM) | 6 ng/mL (≈ 0.0119 µM) | 6 ng/mL (≈ 0.0119 µM) | 6 ng/mL (≈ 0.0119 µM) | 0.025 µg/mL (≈ 0.0496 µM) | 0.012 µg/mL (≈ 0.0238 µM) | 0.012 µg/mL (≈ 0.0238 µM) | 0.012 µg/mL (≈ 0.0238 µM) | – | – | – | – | – | – | – | – | – | – | –
7 | CN(Cc1ccc(-c2ccc(C(F)(F)F)cc2)cn1)CC(O)(Cn1cncn1)c1ccc(F)cc1F (configuration not stated) | 12 ng/mL (≈ 0.0238 µM) | 12 ng/mL (≈ 0.0238 µM) | 12 ng/mL (≈ 0.0238 µM) | 6 ng/mL (≈ 0.0119 µM) | 0.05 µg/mL (≈ 0.0993 µM) | 0.05 µg/mL (≈ 0.0993 µM) | 0.025 µg/mL (≈ 0.0497 µM) | – | – | – | – | – | – | – | – | – | – | – | –

Now from value to compound, other results behind:

Row | MIC80 (Candida albicans [1]) | MIC80 (Candida albicans [2]) | MIC80 (Candida tropicalis) | MIC80 (Candida parapsilosis) | MIC80 (Nakaseomyces glabratus) | MIC80 (Pichia kudriavzevii) | MIC80 (Cryptococcus neoformans) | MIC80 (Aspergillus fumigatus) | half-life [3] | remaining at 1 h [4] | Compound | IC50 at 72 h [5] | inhibition (Candida albicans [6]) | Activity (Cell membrane [7]) | Activity (Cell membrane [8]) | Activity (Mus musculus) | Activity (Candida albicans [9]) | Activity (Candida albicans [10]) | Activity (Candida albicans [11]) | Activity (Candida albicans [12])
8 | 6 ng/mL (≈ 0.0123 µM) | 6 ng/mL (≈ 0.0123 µM) | 6 ng/mL (≈ 0.0123 µM) | 6 ng/mL (≈ 0.0123 µM) | 0.025 µg/mL (≈ 0.0513 µM) | 0.012 µg/mL (≈ 0.0246 µM) | 0.012 µg/mL (≈ 0.0246 µM) | 0.05 µg/mL (≈ 0.103 µM) | – | – | [2H]C([2H])([2H])N(Cc1ccc(-c2ccc(Cl)cc2)cn1)[C@H](C)[C@](O)(Cn1cncn1)c1ccc(F)cc1F | – | – | – | – | – | – | – | – | –
9 | 12 ng/mL (≈ 0.0231 µM) | 6 ng/mL (≈ 0.0115 µM) | 12 ng/mL (≈ 0.0231 µM) | 6 ng/mL (≈ 0.0115 µM) | 0.012 µg/mL (≈ 0.0231 µM) | 0.012 µg/mL (≈ 0.0231 µM) | 0.012 µg/mL (≈ 0.0231 µM) | 0.025 µg/mL (≈ 0.048 µM) | – | – | [2H]C([2H])([2H])N(Cc1ccc(-c2ccc(C(F)(F)F)cc2)nc1)[C@H](C)[C@](O)(Cn1cncn1)c1ccc(F)cc1F | – | – | – | – | – | – | – | – | –
10 | 6 ng/mL (≈ 0.0119 µM) | 6 ng/mL (≈ 0.0119 µM) | 6 ng/mL (≈ 0.0119 µM) | 6 ng/mL (≈ 0.0119 µM) | 0.012 µg/mL (≈ 0.0238 µM) | 0.012 µg/mL (≈ 0.0238 µM) | 0.012 µg/mL (≈ 0.0238 µM) | 0.025 µg/mL (≈ 0.0496 µM) | – | – | [2H]C([2H])([2H])N(Cc1ccc(-c2ccc(Cl)cc2)cc1F)[C@H](C)[C@](O)(Cn1cncn1)c1ccc(F)cc1F | – | – | – | – | – | – | – | – | –
11 | 6 ng/mL (≈ 0.0123 µM) | 6 ng/mL (≈ 0.0123 µM) | 6 ng/mL (≈ 0.0123 µM) | 6 ng/mL (≈ 0.0123 µM) | 0.025 µg/mL (≈ 0.0513 µM) | 0.025 µg/mL (≈ 0.0513 µM) | 0.012 µg/mL (≈ 0.0246 µM) | – | – | – | CN(Cc1ccc(-c2ccc(Cl)cc2)c(F)c1)CC(O)(Cn1cncn1)c1ccc(F)cc1F (configuration not stated) | – | – | – | – | – | – | – | – | –
12 | 25 ng/mL (≈ 0.0532 µM) | 100 ng/mL (≈ 0.213 µM) | 12 ng/mL (≈ 0.0255 µM) | 25 ng/mL (≈ 0.0532 µM) | 0.8 µg/mL (≈ 1.7 µM) | 0.4 µg/mL (≈ 0.851 µM) | 0.1 µg/mL (≈ 0.213 µM) | – | – | – | CN(Cc1ccc(-c2ccccc2Cl)cn1)CC(O)(Cn1cncn1)c1ccc(F)cc1F (configuration not stated) | – | – | – | – | – | – | – | – | –
13 | 12 ng/mL (≈ 0.0231 µM) | 12 ng/mL (≈ 0.0231 µM) | 12 ng/mL (≈ 0.0231 µM) | 6 ng/mL (≈ 0.0116 µM) | 0.025 µg/mL (≈ 0.0482 µM) | 0.025 µg/mL (≈ 0.0482 µM) | 0.012 µg/mL (≈ 0.0231 µM) | – | – | – | CN(Cc1ccc(-c2ccc(OC(F)(F)F)cc2)cc1)CC(O)(Cn1cncn1)c1ccc(F)cc1F (configuration not stated) | – | – | – | – | – | – | – | – | –
